Data: PMC10870240 (Chembiochem : a European journal of chemical biology, 2023)

Target: full-length CBP (Homo sapiens, UniProt Q92793)
Assay: cellular thermal shift assay
Assay type: biochemical
Settings: 25 μM garcinolic acid, MV4-11 nuclear extract

full-length CBP, sequence (Q92793 2-2442): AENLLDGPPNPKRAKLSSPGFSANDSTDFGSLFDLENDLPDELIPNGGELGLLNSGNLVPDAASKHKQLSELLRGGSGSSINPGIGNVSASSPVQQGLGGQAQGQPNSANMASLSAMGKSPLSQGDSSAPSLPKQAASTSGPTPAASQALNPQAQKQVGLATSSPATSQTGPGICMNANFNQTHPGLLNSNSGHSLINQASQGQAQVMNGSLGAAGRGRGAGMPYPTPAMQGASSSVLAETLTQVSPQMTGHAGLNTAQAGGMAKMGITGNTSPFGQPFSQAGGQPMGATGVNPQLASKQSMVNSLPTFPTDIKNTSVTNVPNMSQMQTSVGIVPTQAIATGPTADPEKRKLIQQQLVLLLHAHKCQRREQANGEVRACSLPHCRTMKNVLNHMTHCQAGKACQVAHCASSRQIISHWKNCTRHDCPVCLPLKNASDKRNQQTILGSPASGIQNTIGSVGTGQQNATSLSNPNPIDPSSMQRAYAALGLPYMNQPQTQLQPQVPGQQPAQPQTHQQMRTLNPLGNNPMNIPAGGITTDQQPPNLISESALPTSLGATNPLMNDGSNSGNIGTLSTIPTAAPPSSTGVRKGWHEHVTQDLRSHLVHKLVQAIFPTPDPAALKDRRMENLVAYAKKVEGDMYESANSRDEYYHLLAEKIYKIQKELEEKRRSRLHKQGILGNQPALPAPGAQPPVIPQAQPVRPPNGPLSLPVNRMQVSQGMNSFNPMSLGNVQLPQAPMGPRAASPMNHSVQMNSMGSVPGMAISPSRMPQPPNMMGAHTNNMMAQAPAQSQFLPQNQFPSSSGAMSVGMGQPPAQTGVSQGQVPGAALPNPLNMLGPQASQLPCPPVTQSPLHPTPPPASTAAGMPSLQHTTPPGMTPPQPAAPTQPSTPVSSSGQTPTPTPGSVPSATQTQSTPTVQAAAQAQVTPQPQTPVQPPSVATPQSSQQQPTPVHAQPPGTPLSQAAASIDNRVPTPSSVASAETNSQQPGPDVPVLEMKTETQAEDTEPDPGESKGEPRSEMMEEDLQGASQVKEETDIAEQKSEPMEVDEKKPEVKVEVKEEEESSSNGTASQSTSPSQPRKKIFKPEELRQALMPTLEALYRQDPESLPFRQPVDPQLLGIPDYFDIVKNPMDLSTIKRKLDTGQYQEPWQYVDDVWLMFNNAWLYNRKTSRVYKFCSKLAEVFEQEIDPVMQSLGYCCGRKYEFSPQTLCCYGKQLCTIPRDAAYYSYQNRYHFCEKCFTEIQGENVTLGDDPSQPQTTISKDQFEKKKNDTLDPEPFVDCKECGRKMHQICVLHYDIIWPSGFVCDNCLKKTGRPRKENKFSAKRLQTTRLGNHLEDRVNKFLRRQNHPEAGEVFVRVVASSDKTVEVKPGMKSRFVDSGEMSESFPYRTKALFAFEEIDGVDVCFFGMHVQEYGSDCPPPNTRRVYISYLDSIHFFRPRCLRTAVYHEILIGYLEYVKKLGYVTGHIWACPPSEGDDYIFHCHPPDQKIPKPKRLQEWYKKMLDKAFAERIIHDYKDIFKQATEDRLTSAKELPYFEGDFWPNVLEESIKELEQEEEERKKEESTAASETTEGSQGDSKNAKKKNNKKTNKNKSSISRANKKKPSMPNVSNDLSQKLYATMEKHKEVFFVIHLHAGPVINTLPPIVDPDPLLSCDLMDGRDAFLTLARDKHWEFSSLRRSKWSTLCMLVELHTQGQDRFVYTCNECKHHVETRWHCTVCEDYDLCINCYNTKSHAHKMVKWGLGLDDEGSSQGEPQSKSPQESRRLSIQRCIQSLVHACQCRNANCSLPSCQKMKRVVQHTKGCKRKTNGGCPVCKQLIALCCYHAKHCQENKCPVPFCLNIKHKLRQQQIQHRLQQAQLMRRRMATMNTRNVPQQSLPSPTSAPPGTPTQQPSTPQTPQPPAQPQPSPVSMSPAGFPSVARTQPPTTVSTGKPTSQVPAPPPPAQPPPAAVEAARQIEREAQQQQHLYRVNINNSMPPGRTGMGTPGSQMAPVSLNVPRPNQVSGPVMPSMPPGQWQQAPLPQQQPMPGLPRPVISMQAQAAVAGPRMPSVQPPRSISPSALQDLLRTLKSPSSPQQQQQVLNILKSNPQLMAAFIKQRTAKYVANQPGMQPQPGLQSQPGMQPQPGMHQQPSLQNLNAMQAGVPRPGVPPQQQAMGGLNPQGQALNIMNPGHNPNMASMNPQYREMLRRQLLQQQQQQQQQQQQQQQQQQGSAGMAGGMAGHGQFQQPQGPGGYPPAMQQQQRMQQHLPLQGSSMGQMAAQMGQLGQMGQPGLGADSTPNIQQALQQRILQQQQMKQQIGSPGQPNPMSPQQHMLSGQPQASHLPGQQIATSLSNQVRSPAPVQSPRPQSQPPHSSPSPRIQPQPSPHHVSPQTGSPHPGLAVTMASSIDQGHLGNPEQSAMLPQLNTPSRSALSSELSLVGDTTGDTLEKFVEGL

CC(C)=CCCC1(C)C=Cc2c(O)c3c(c(CC=C(C)C)c2O1)OC12C(=CCCC1C(C)(C)O[C@@]2(C/C=C(\C)C(=O)O)C(=O)O)C3=O (stereo partly shown) [garcinolic acid]
cellular thermal shift assay (Western blot): intact CBP is still observed in the garcinolic acid treated samples
